# PubChem BioAssay (NCI)
#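 The compound was tested at five concentrations on cells cultured in 96-well plates, with a 48-hour exposure period. At the TGI there is no net growth.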
# How the values were obtained:
# Experiment in all cases: NCI-60 cell line screen, 48 h
# DLD-1 colon = system: DLD-1 colon
# XF 498 CNS = system: XF 498 CNS
# HOP-18 NSCLC = system: HOP-18 NSCLC
# M19-MEL melanoma = system: M19-MEL melanoma
# SNB-78 CNS = system: SNB-78 CNS
# KM20L2 colon = system: KM20L2 colon
# DMS 273 small cell lung = system: DMS 273 small cell lung
# DMS 114 small cell lung = system: DMS 114 small cell lung
# LXFL 529 NSCLC = system: LXFL 529 NSCLC
# TK-10 renal = system: TK-10 renal
# RXF-631 renal = system: RXF-631 renal
structure (smiles),measurement,setting,value
CC(=O)OCC1OC(n2c(O)c(N=NC(N)=S)c3ccc([N+](=O)[O-])cc32)C(OC(C)=O)C1OC(C)=O (configuration not stated),TGI,DLD-1 colon,> 100 µM
same,TGI,XF 498 CNS,94.7 µM
same,TGI,HOP-18 NSCLC,> 100 µM
same,TGI,M19-MEL melanoma,38.3 µM
same,TGI,SNB-78 CNS,> 100 µM
same,TGI,KM20L2 colon,> 100 µM
same,TGI,DMS 273 small cell lung,57.5 µM
same,TGI,DMS 114 small cell lung,61.9 µM
same,TGI,LXFL 529 NSCLC,> 100 µM
same,TGI,TK-10 renal,> 100 µM
COC(=O)/C(=N\N)C(C(=O)C(=O)Nc1nc(=S)[nH][nH]1)c1nc2ccc([N+](=O)[O-])cc2[nH]c1=O (configuration not stated),TGI,DLD-1 colon,> 100 µM
same,TGI,HOP-18 NSCLC,> 100 µM
same,TGI,M19-MEL melanoma,> 100 µM
same,TGI,SNB-78 CNS,> 100 µM
same,TGI,KM20L2 colon,> 100 µM
same,TGI,DMS 273 small cell lung,> 100 µM
same,TGI,DMS 114 small cell lung,> 100 µM
same,TGI,LXFL 529 NSCLC,> 100 µM
same,TGI,TK-10 renal,> 100 µM
same,TGI,RXF-631 renal,> 100 µM
Cc1cnc2[nH]c(-c3ccc(Cl)cc3)cc(=O)c2c1,TGI,TK-10 renal,> 100 µM
O=C1C2C3C=C4c5ccccc5N(c5ccccc5)C4([C@@H]2C(=O)N1c1ccc(F)cc1)[C@H]1C(=O)N(c2ccc(F)cc2)C(=O)[C@@H]31 (some centres not stated),TGI,DLD-1 colon,> 100 µM
same,TGI,XF 498 CNS,> 100 µM
same,TGI,HOP-18 NSCLC,> 100 µM
same,TGI,M19-MEL melanoma,> 100 µM
same,TGI,SNB-78 CNS,> 100 µM
same,TGI,DMS 114 small cell lung,> 100 µM
same,TGI,TK-10 renal,> 100 µM
Cc1ccc(S(=O)(=O)NNC(=O)Nc2ccc([N+](=O)[O-])cc2)cc1,TGI,TK-10 renal,> 100 µM
COc1cc2c(cc1OC)[C@H]1C(COC(=O)Nc3ccccc3)CN1CC2 (some centres not stated),TGI,DLD-1 colon,> 100 µM
same,TGI,HOP-18 NSCLC,> 100 µM
same,TGI,M19-MEL melanoma,> 100 µM
same,TGI,DMS 273 small cell lung,> 100 µM
same,TGI,LXFL 529 NSCLC,> 100 µM
same,TGI,TK-10 renal,> 100 µM
C[C@H]1S[C@H](c2c(F)cccc2F)n2c1nc1ccccc12,TGI,TK-10 renal,> 100 µM
O=C(O)CCC(NC(=O)c1ccc(CNc2nc3cc(C(F)(F)F)ccc3nc2C(=O)O)cc1)C(=O)O (configuration not stated),TGI,TK-10 renal,> 100 µM
COC1(C)CNCC(C)(C)NC(=O)C(C)(OC)CNCC(C)(C)NC1=O (configuration not stated),TGI,DLD-1 colon,> 100 µM
same,TGI,HOP-18 NSCLC,> 100 µM
same,TGI,M19-MEL melanoma,> 100 µM
same,TGI,SNB-78 CNS,> 100 µM
same,TGI,KM20L2 colon,> 100 µM
same,TGI,DMS 273 small cell lung,> 100 µM
same,TGI,DMS 114 small cell lung,> 100 µM
same,TGI,LXFL 529 NSCLC,> 100 µM
same,TGI,TK-10 renal,> 100 µM
same,TGI,RXF-631 renal,> 100 µM
CC1OC(CC2C=CCc3c(O)c4c(c(O)c32)C(=O)c2ccccc2C4=O)CC(NC(=O)C(F)(F)F)C1O (configuration not stated),TGI,DLD-1 colon,20 µM
same,TGI,XF 498 CNS,14.6 µM
same,TGI,M19-MEL melanoma,21.1 µM
same,TGI,SNB-78 CNS,14.9 µM
same,TGI,KM20L2 colon,55.3 µM
same,TGI,DMS 273 small cell lung,19.7 µM
same,TGI,DMS 114 small cell lung,26.8 µM
same,TGI,LXFL 529 NSCLC,20.4 µM
same,TGI,TK-10 renal,10.9 µM
COC(=O)[C@@H]1[C@H]2CC[C@]3(C)[C@@H](OC(C)=O)CC[C@H]3[C@@H]2CC[C@H]1C(C)=O,TGI,TK-10 renal,> 100 µM
O=c1[nH]c(=O)n(C2CC(O)C(COP(=O)(OCC(Cl)(Cl)Cl)OCC(Cl)(Cl)Cl)O2)cc1F (configuration not stated),TGI,TK-10 renal,> 100 µM
CCOC(=O)CCc1ccc(NC(=O)/C=C/c2ccc([N+](=O)[O-])o2)cc1,TGI,TK-10 renal,4.07 µM
COC(=O)CNC(=O)CSc1nnc(COc2ccc(Cl)cc2)n1-c1ccccc1,TGI,TK-10 renal,46.3 µM
CCOC(=O)c1nc2cc(F)cc(F)c2[nH]c1=O,TGI,TK-10 renal,> 100 µM
COC(=O)/C(C#N)=C/c1cc(C(C)(C)C)c(O)c(C(C)(C)C)c1,TGI,TK-10 renal,12.9 µM
O=c1c2ccccc2nc(N/N=C/c2ccc(Cl)cc2)n1-c1ccccc1,TGI,TK-10 renal,> 100 µM
CN1CCN(Cc2ccccc2)CC1CC#N (configuration not stated),TGI,TK-10 renal,> 100 µM
Nc1ncc2c(n1)-c1ccccc1OC2N1CCOCC1 (configuration not stated),TGI,TK-10 renal,> 100 µM
COc1cc2cnc3c4cc(OC)c(OC(C)C)cc4ccc3c2cc1OC,TGI,DLD-1 colon,> 100 µM
same,TGI,HOP-18 NSCLC,> 100 µM
same,TGI,M19-MEL melanoma,> 100 µM
same,TGI,SNB-78 CNS,> 100 µM
same,TGI,KM20L2 colon,> 100 µM
same,TGI,DMS 273 small cell lung,> 100 µM
same,TGI,DMS 114 small cell lung,> 100 µM
same,TGI,LXFL 529 NSCLC,> 100 µM
same,TGI,TK-10 renal,> 100 µM
same,TGI,RXF-631 renal,> 100 µM
COC(=O)[C@H](C)N(C)C(=O)[C@H](C)N1[C@@H](c2ccccc2)COC1(C)C,TGI,TK-10 renal,> 100 µM
C/C=C1/C(=Cc2[nH]c(C=c3[nH]/c(=C/C4=NC(=O)C(CC)=C4C)c(C)c3CCC(=O)O)c(CCC(=O)O)c2C)NC(=O)C1C (configuration not stated),TGI,DLD-1 colon,> 50 µM
same,TGI,XF 498 CNS,17.5 µM
same,TGI,HOP-18 NSCLC,> 50 µM
same,TGI,M19-MEL melanoma,41.6 µM
same,TGI,SNB-78 CNS,> 50 µM
same,TGI,KM20L2 colon,> 50 µM
same,TGI,DMS 273 small cell lung,37.1 µM
same,TGI,DMS 114 small cell lung,> 50 µM
same,TGI,LXFL 529 NSCLC,> 50 µM
same,TGI,TK-10 renal,> 50 µM
same,TGI,RXF-631 renal,> 50 µM
CC[C@]1(Cc2ccc(OC)c(OC)c2)C=[N+]([O-])O[C@H](OCc2ccccc2)[C@@H]1OC(C)=O,TGI,TK-10 renal,> 100 µM
CC(=O)OCC1=CC2CCC3C(C)(CCC[C@]3(C)COC(C)=O)C23CC[C@H]1C3 (some centres not stated),TGI,DLD-1 colon,> 100 µM
same,TGI,XF 498 CNS,81.9 µM
same,TGI,HOP-18 NSCLC,> 100 µM
same,TGI,M19-MEL melanoma,> 100 µM
same,TGI,KM20L2 colon,> 100 µM
same,TGI,DMS 273 small cell lung,> 100 µM
same,TGI,DMS 114 small cell lung,44.3 µM
same,TGI,LXFL 529 NSCLC,> 100 µM
same,TGI,TK-10 renal,> 100 µM
same,TGI,RXF-631 renal,> 100 µM
CC1N=C(c2ccccc2)OC1=O (configuration not stated),TGI,TK-10 renal,> 100 µM
Cc1ccc(O)c(C(c2cc(C)ccc2O)c2cc([N+](=O)[O-])ccc2O)c1,TGI,TK-10 renal,34.8 µM
CCC(=O)CCC1=Nc2nnc(CCCCc3nnc4n3C(=O)C(CCC(=O)CC)=N4)n2C1=O,TGI,DLD-1 colon,> 100 µM
same,TGI,XF 498 CNS,> 100 µM
same,TGI,M19-MEL melanoma,> 100 µM
same,TGI,KM20L2 colon,> 100 µM
same,TGI,DMS 273 small cell lung,> 100 µM
same,TGI,DMS 114 small cell lung,> 100 µM
same,TGI,LXFL 529 NSCLC,> 100 µM
same,TGI,TK-10 renal,> 100 µM
COC1C(=O)N(SC)C1c1ccccc1Cl (configuration not stated),TGI,TK-10 renal,> 100 µM
CCOc1nc2sc3c(c2c(=O)n1CCSSCCn1c(OCC)nc2sc4c(c2c1=O)CCCC4)CCCC3,TGI,TK-10 renal,> 100 µM
N#Cc1c(N)c2c(c(-c3ccccc3)c1-c1ccccc1)C(=O)N(O)C2=O,TGI,TK-10 renal,> 100 µM
C=CCN1C(=O)CS/C1=N\NC(=O)CSc1nc2ccccc2c(=O)n1CC,TGI,TK-10 renal,> 100 µM
Cc1cc(S(=O)(=O)NC2=NCC(C)(C)CN2)c(S)cc1Cl,TGI,TK-10 renal,> 100 µM
CC12CCC(=O)[C@@]1(C)CCCC2O (some centres not stated),TGI,TK-10 renal,> 100 µM
COc1cccc(CCn2c(N)c(C#N)c3ccc([N+](=O)[O-])cc3c2=O)c1,TGI,TK-10 renal,> 46.4 µM
CCN1C/C(=C\c2ccc(Cl)cc2)c2[nH]c(=O)c(C#N)c(-c3ccc(Cl)cc3)c2C1,TGI,TK-10 renal,> 100 µM
CCCC(C(=O)Nc1cccc2[nH]cnc12)C(=O)OCC (configuration not stated),TGI,TK-10 renal,> 100 µM
